# Data as given in patent publication US20150366824A1, “INDUCTION OF ESTROGEN RECEPTOR BETA BY CHOLESTEROL BIOSYNTHESIS INHIBITORS AND METHODS OF TREATMENT OF CANCER” (THE CURATORS OF THE UNIVERSITY OF MISSOURI, priority 2012, published 2015).
# Columns and labels:
# [1] = tested on: BT-474 cells; experiment: Sulforhodamine B (SRB) cell viability assay with ERβ-specific ligands; format: cell-based, human; settings: for cell viability: Ro 48-8071 combined with ERβ agonist DPN: BT-474, 10 nM Ro 48-8071 ± 1 nM DPN, 48 h; for cell viability: Ro 48-8071 combined with ERβ antagonist PHTPP: BT-474, 10 nM Ro 48-8071 ± 10 or 100 nM PHTPP, 24 h
# Procedure: FIG. 6. […] BT-474 cells were treated with 10 nM Ro 48-8071±1 nM DPN, or with DPN alone. Cell viability was determined after 48 h using the SRB assay.
# FIG. 7. […] BT-474 cells treated with 10 nM Ro 48-8071 for 24 h±10 or 100 nM PH, or with PHTPP alone. Cell viability was determined after 24 h as described previously. […] The anti-proliferative effects of Ro 48-8071 in breast cancer cells is reduced when it is combined with ERβ antagonist.
# The sulforhodamine B (SRB) assay was employed to evaluate the effect potent cholesterol biosynthesis inhibitor Ro 48-8071 alone or in combination with ERβ-specific ligands on viability of breast cancer cells, with slight modification of the original procedure established at NCI. Ro 48-8071, and ERβ-specific ligands (either an agonist DPN (diarylpropionitrile), or an antagonist PHTPP (4-[2-phenyl-5,7-bis(trifluoromethyl) pyrazolo[1,5-a]pyrimidin-3-yl]phenol)) (“PH”) were used in BT-474, T47-D, MDA-MB-231, and BT-20 human breast cancer cells in this study.
# Accordingly, cells were seeded in 96-well plates in 100 μL culture medium and incubated overnight at 37° C. with 5% CO2. Culture medium was removed after 24 h, and the attached cells were washed with DMEM/F12 medium and treated by Ro 48-8071 alone or with ERβ-specific ligands at various concentrations for 24-48 hrs. […]
# The surviving or adherent cells were fixed in situ by withdrawing the growth medium and adding 100 μL of PBS and 100 μL of 50% cold trichloroacetic acid and then incubating at 4° C. for 1 h. Attached cells (that had survived) were washed 5 times with ice-water, dried at room temperature (RT), and then stained with 50 μL […] SRB for 8 min at room temperature (RT). Unbound dye was removed by washing 5 times with cold 1% acetic acid, and the plates were dried at RT. Bound stain was solubilized with 150 μL 10 mM Tris buffer, and absorbance of samples measured at 520 nm with a SpecTRA MAX 190 microplate reader (Sunnyvale, Calif.). Six wells were used for each concentration, and each experiment was performed at least twice.
# [2] = tested on: ERα; experiment: Western blot analysis of ERα protein in breast cancer cells; format: cell-based, human; settings: for expression of ERα protein: treatment for six hours, dose-dependent
# Procedure: (§1) Cells used in these experiments included both the ERα+ve as well as ERα-ve cells, including triple negative types which are very aggressive growing. The ERα+ve cells used were T47-D and BT-474 cells. The ERα-ve cells used were MDA-MB-231, BT-20 and SkBr-3 cells. All cells were grown in media as specified in the data sheet from A TCC, provider of cell lines.
# (§2) Whole cell extracts of breast cancer cells were prepared using a whole cell extract kit (Active Motif, Carlsbad, Calif.). Briefly, after treatment with Ro 48-8071, cells were washed once with PBS, harvested with 0.05% trypsin-EDT A, and centrifuged at 200 g at 4° C. for 5 min. Cell pellets were resuspended in lysis buffer and supernatant was transferred into pre-chilled microcentrifuge tubes and incubated on ice for 30 minutes. Samples were centrifuged at 14,000×g at 4° C. for 20 minutes, and supernatant was transferred to pre-chilled microcentrifuge tubes. Aliquots of samples were stored at −80° C. For western blot analysis, samples containing 50 μg of protein were separated in a NuPAGE 10% Bis-Tris Gel (Invitrogen, Carlsbad, Calif.).
# (§3) Electrophoresis was performed at 120 V for 2 h using NuPAGE MES-SDS Running Buffer. Separated proteins were transferred to polyvinylidene difluoride membranes (BioRad Laboratories, Hercules, Calif.) at 35 V for 1.5 h.
# (§4) Blots were blocked at room temperature (RT) for 1 hr in TBS containing 0.1% Tween 20 (TBS-T) and 5% nonfat dry milk and incubated with antibodies for ERα (dilution 1:200) for 2 h at room temperature, and ERβ (dilution 1:150) at 4° C. overnight. Blots were washed 3 times with TBS-T and incubated with secondary antibody for 1 h at RT before being washed a further 7 times with TBS-T.
# (§5) Immunoreactive bands were visualized using an ECL Plus detection kit (Amersham, Pharmacia Biotech, Arlington Heights, Ill.). Membranes were stripped and re-blotted for beta-actin (Sigma), which was used as a control for protein loading. β-actin was used as a loading control to determine amount of total protein loaded in each lane.
# [3] = tested on: human breast cancer xenografts; experiment: Human breast cancer xenografts in nude mice; format: in vivo
# Procedure: Female athymic nu/nu nude mice, 5 to 6 weeks-old (18-22 g) may be purchased from a number of suppliers, such as Harland Sprague-Dawley, Inc. Nude mice are inoculated with 17β-estradiol pellets (1.7 mg/pellet, 60 days release) 48 hours before inoculating tumor cells. BT-474 human breast cancer cells, 5×10^6 in 0.15 ml solution mixed with matrigel and DMEM/F12 medium (4/1, v/v) are injected into each flank of mouse subcutaneously and both flanks of each mouse are injected. When tumor volume reaches around 100 mm3, animal are randomly assigned to three groups and the treatment started with RO 48-8071 (5 mg/kg/day or 10 mg/kg/day) via tail-vein injection for five days, followed by same treatment every other day for five additional times Animals in control group receive the vehicle alone under identical conditions. Tumor volumes are measured by a digital caliper and calculated using the formula (L×W×H)×0.5236.
# [4] = tested on: Bcl-2; experiment: Western blot analysis of Bcl-2 protein in T47-D breast cancer cells; format: cell-based, human; settings: treatment for six hours
# [5] = biological target: T1, OSC (Homo sapiens, UniProt P48449); settings: cited from earlier work
# T1 sequence (P48449 1-732): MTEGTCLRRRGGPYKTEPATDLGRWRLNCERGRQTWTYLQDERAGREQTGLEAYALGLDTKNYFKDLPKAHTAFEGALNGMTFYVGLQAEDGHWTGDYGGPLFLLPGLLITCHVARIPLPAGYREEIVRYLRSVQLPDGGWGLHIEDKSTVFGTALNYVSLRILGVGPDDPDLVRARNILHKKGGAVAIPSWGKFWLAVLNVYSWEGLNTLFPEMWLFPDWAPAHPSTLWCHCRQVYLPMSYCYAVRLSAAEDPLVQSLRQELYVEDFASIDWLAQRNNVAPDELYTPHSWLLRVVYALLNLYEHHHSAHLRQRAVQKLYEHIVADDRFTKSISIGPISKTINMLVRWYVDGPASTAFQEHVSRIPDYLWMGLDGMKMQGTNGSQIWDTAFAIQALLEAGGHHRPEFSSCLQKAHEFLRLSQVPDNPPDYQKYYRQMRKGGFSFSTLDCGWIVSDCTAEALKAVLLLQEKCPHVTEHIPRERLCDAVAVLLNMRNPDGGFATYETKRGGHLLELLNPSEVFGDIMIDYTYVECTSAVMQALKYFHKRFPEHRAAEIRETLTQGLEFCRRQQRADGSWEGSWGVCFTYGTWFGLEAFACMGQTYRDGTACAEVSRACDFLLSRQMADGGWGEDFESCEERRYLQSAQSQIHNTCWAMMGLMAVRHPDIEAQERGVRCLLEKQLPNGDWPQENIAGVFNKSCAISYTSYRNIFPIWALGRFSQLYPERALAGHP
# [6] = tested on: ERβ; experiment: Western blot analysis of ERβ protein in breast cancer cells; format: cell-based, human; settings: for expression of ERβ protein: treatment for six hours, dose-dependent
# Procedure: as §1, §2, §3, §4, §5
# [7] = tested on: T47-D cells; experiment: SRB cell viability assay after ERβ siRNA knockdown; format: cell-based, human; settings: 60 nM ERβ siRNA, Ro 48-8071 10 nM, 48 h
# Procedure: FIG. 5. […] T47-D cells were treated with either ERβ siRNA (30 and 60 nM; siERβ, Santa Cruz), scrambled RNA (siC) or transfection reagent alone (C) for 72 h (upper panel). In the group treated with 60 nM siRNA, cells were treated with Ro 48-8071 (10 nM) or vehicle alone (C) for 48 h (lower panel) and tumor cell viability was determined using SRB assay as described.
# ERβ siRNA (human) and control siRNA were obtained from Santa Cruz Biotechnology, Inc. (Santa Cruz, Calif., e.g. catalog no.s SC-35325 and SC-37007). ERβ siRNA is a pool of 3 target-specific 20-25 nt siRNA designed to knock down ERβ gene expression.
# Transfection reagent, oligonucleotides and medium, Opti-MEM were from Invitrogen (Carlsbad, Calif.). The day before transfection, cells were seeded in six-well plates at a density of 8×10̂4 cells per well with 10% FBS DMEM/F12 medium.
# To make solution A, ERβ siRNA was diluted in Opti-MEM, resulting in a final concentration of 30 or 60 nM in 100 μl/well and incubate for 5 min at room temperature (RT). […]
# The surviving or adherent cells were fixed in situ by withdrawing the growth medium and adding 100 μL of PBS and 100 μL of 50% cold trichloroacetic acid and then incubating at 4° C. for 1 h. […] Bound stain was solubilized with 150 μL 10 mM Tris buffer, and absorbance of samples measured at 520 nm with a SpecTRA MAX 190 microplate reader (Sunnyvale, Calif.). […]
# [8] = low dose, 10 or 100 nM, seven days
smiles,measurement,setting,value
"N#CC(Cc1ccc(O)cc1)c1ccc(O)cc1 (stereo not drawn) [DPN, 2,3-bis(4-hydroxyphenyl)-propionitrile]",cell viability: Ro 48-8071 combined with ERβ agonist DPN,[1],potentiates the ability of Ro 48-8071 to reduce viability
"Oc1ccc(-c2c(-c3ccccc3)nn3c(C(F)(F)F)cc(C(F)(F)F)nc23)cc1 [PHTPP, 4-[2-phenyl-5,7-bis(trifluoromethyl)pyrazolo[1,5-a]pyrimidin-3-yl]phenol]",cell viability: Ro 48-8071 combined with ERβ antagonist PHTPP,[1],blocks the anti-proliferative effect of Ro 48-8071
"C=CCN(C)CCCCCCOc1ccc(C(=O)c2ccc(Br)cc2)c(F)c1 [Ro 48-8071, (4-bromophenyl)[2-fluoro-4-[[6-(methyl-2-propenylamino)hexyl]oxy]phenyl]-methanone]",expression of ERα protein,[2]; BT-474 breast cancer cells,suppressed
same,expression of ERα protein,[2]; T47-D breast cancer cells,suppressed
same,expression of ERα,[2]; [8],suppressed
same,growth of human breast cancer xenografts,[3],inhibit growing of human breast cancer xenografts
same,toxicity in xenograft-bearing nude mice,[3],without toxicity
same,expression of Bcl-2 protein,[4],decreased with increasing dose
same,OSC inhibition in words,[5],potent inhibitor of OSC
same,expression of ERβ protein,[6]; BT-474 breast cancer cells,induced
same,expression of ERβ,[6]; ERα-negative (triple-negative) BT-20 cells,stimulates expression of ERβ
same,expression of ERβ,[6]; ERα-negative (triple-negative) MDA-MB-231 cells,stimulates expression of ERβ
same,expression of ERβ protein,[6]; T47-D breast cancer cells,induced
same,expression of ERβ,[6]; [8],induced
same,tumor cell viability: effect of ERβ knockdown on the anti-proliferative effect,[7],blocked the anti-proliferative effect
same,cell viability: Ro 48-8071 combined with ERβ agonist DPN,[1],increased cell death more effectively (additively)
same,cell viability: Ro 48-8071 combined with ERβ antagonist PHTPP,[1],reduced
"CCN(CC)CCO[C@H]1CC[C@@]2(C)C(=CC[C@@H]3[C@@H]2CC[C@]2(C)C(=O)CC[C@@H]32)C1 [U18666A, 3-beta-(2-(diethylamino)ethoxy)androst-5-en-17-one]",OSC inhibition in words,[5],potent inhibitor of OSC
